According to patent publication US7148380B2, “Bio-energy muscle relaxants” (priority 2000, dated 2006):

Test system: drug-induced asthma in guinea pig
Assay: Asthmatic latent period / drug-induced asthma in guinea pig (acetylcholine + histamine inhalation)
Assay type: in vivo
Experimental: Sensitive animals were chosen by aerosolized inhalation of asthma-inducing agents—a mixed solution of 2% acetylcholine with 0.1% histamine for 15 sec., inducing an asthmatic attack with severe difficulty in respiration and finally resulting in the animal body turned down. The time from beginning of the inhalation to animal turned down was recorded as an index named “turned down time” or asthmatic latent period. Those animals with turned down time less than 120 s. were selected for the study next day. […] Then the latent period was recorded for each of the animals.
(1) Screening animals: animal was put in a glass container, a mixed solution of 2% acetylcholine and 0.1% histamine was nebulized with a pressure of 400 mmHg and inhaled by the animals for 15 sec. Following the end of the inhalation, the time between beginning of the inhalation and the animal turned down due to bronchial spasm and dyspnea was recorded as asthmatic latent period. Those animals with a latent period beyond 120 s. were excluded, and those with a latent period less than 120 s were selected for study the next day.
(4) Measuring: Repeat the inhalation at 30 min, 4 h, and 24 h after administration of the drugs respectively. Asthmatic latent period was recorded, 6 minutes were taken as the maximum, and values beyond 6 min were counted as 6 min.
(5) Data analysis: Values were expressed as mean±sd, and paired for “t” and chi-square tests. Significance was considered to be established when p<0.05.

[1] = 10 ml/kg I.P. (BDM 0.2M, aminophylline 1.25%), mean±sd

Question: With `CC(=O)C(C)=NO` [BDM, 2,3-butanedione monoxime] as the compound, how does the “Asthamatic Latent Period, 4 hours after administration” value [1] read?
Answer: 99.2 ± 42.1 s

Question: What about the “Asthamatic Latent Period, 24 hours after administration” value [1] of the same compound?
Answer: 81.8 ± 11.0 s

Question: What about the “Incidence of asthmatic spasm” value (30 min after administration, down from 100%, not significant) of the same compound?
Answer: 60%

Question: What about the “Asthamatic Latent Period, before administration” value (baseline before drug, 10 ml/kg I.P. (BDM 0.2M, aminophylline 1.25%), mean±sd) of the same compound?
Answer: 70.4 ± 21.1 s

Question: What about the “Effect on the latent period” value (four and 24 h after administration) of the same compound?
Answer: no significant effect
